In US10034915B2, “Small heat shock proteins and active fragments thereof as a therapy for inflammation and ischemia” (The Board of Trustees of the Leland Stanford Junior …, priority 2011, dated 2018):
Entries after “also recorded” stand apart in the source; their conditions may differ.

Columns and labels:
HSPB5−/− EAE mice = conditions: WT and HSPB5 deficient mice; previously published data; cited from earlier work
brain T cells = test: Brain T cell populations at 7 d after stroke (flow cytometry), wild-type mice; format: in vivo, mouse; conditions: vs PBS
Protocol: The T cell populations in brain were analyzed at 7 d after stroke. […] However, when we quantitatively analyzed how many cytokine molecules existed per cell, we found fewer IL-17-PE molecules per CD3^+, CD4^+ and gd-T cells in Cryab-treated mice brains compared to PBS-treated ones (FIG. 15k, l).

[1] = test system: pro-inflammatory cytokines of MOG stimulated splenocytes; test: Peripheral immune cell activation: cytokine production by MOG stimulated splenocytes of treated MOG immunized mice (ELISA); parameters: species or system mouse; conditions: mice treated in vivo; splenocytes from MOG immunized mice
Protocol: Peripheral immune cell activation and cytokine analysis. Spleens and lymph nodes were isolated from mice 9 days after immunization with MOG35-55 and CFA. Spleens were mechanically disrupted to isolate single cell splencytes suspension. Cells were cultured in flat bottomed, 96-well plates in media (RPMI 1640 supplemented with […] L-glutamine, 1 mM sodium pyruvate, 0.1 mM non-essential amino acids, 100 U/mL penicillin, 0.1 mg/mL streptomycin, 0.5 uM 2-mercaptoethanol, and 10% fetal calf serum). Cells were stimulated with MOG35-55 (5 ug/mL, 10 ug/mL, and 20 ug/mL). For all activation assays, splenocytes were pooled from three mice per group and triplicate wells were plated. Supernatants of cells were collected at the time of peak production for each cytokine (48 hrs: IL-2, IL-12p40, IL-6; 72 hrs: TNFα and IFNγ; 96 hrs: IL-17; 120 hrs: IL-10). Cytokines were measured in the supernatants using anti-mouse OPTEIA ELISA kits (BD Pharmingen for IFNγ, IL-10, IL-2, IL-6, and IL-12p40; R&D Systems for IL-17 and TNFα).

[2] = test system: splenocytes stimulated with anti-CD3/anti-CD28, concanavalin-A or LPS; test: Splenocyte cytokine response at 7 d after stroke, Cryab−/− mice; format: in vivo, mouse; conditions: Cryab treated vs PBS treated Cryab−/− mice
Protocol: The effects of Cryab treatment on splenocytes isolated from PBS treated wild-type and Cryab^−/− mice and Cryab treated Cryab^−/− mice were assessed at 7 d after stroke. Splenocytes from PBS treated Cryab^−/− mice produced more pro-inflammatory IL-2, IL-17 and TNF when stimulated with anti-CD3/anti-CD28 than both PBS-treated wild-type mice and Cryab-treated Cryab^−/− mice splenocytes (FIG. 12e). When stimulated by concanavalin-A, splenocytes from PBS treated Cryab^−/− mice produced more pro-inflammatory IFN-γ, TNF, IL-12p40 and less anti-inflammatory IL-10 compared to the splenocytes from both PBS treated wild-type and Cryab treated Cryab^−/− mice (FIG. 12e). When stimulated with LPS, splenocytes from PBS treated Cryab^−/− mice produced more TNF and less IL-10 compared to the splenocytes from both PBS treated wild-type mice and Cryab treated Cryab^−/− mice (FIG. 12e).

[3] = test system: splenocytes stimulated with concanavalin A or LPS; test: Splenocyte cytokine response at 7 d after stroke, wild-type mice; format: in vivo, mouse; conditions: vs PBS
Protocol: Effects of Cryab treatment on immune system. The effects of Cryab treatment on the splenocyte cytokine response were assessed at 7 d after stroke in wild-type mice. The total number of splenocytes in PBS and Cryab treated mice was equivalent at 7 d after stroke (data not shown). When stimulated by concanavalin A, splenocytes from Cryab treated mice produced fewer pro-inflammatory IL-2, IL-17, IFN-g, IL-12p40, IL-6 and more anti-inflammatory IL-10 than the splenocytes from PBS treated mice (FIG. 14d-i). When stimulated by LPS, Cryab-treated mice splenocytes produced fewer pro-inflammatory IL-6 and TNF than the splenocytes from PBS-treated mice (FIG. 14j, k).

EAE mice = test: EAE in 129Sv WT mice immunized with MOG35-55/CFA, clinical scoring; format: in vivo, mouse; conditions: vs PBS
Protocol: To investigate if the therapeutic efficacy of HSPB5 is a common feature of the whole family of small heat shock proteins, we expressed recombinant HSPB1, HSPB4, and HSPB5. We then treated EAE mice every other day starting at the peak of disease, when clinical paralysis is apparent, with an intraperitoneal (IP) administration of 10 μg of either HSPB1, HSPB4, HSPB5, or PBS as the vehicle control. […] Treating mice in vivo with HSPB1, HSPB4, or HSPB5 led to a reduction in the production of pro-inflammatory cytokines by MOG stimulated splenocytes taken from MOG immunized mice (FIG. 1c). Improvement of the clinical score was dependent on continued dosing of the sHSP. After dosing was stopped, symptoms returned, and paralysis worsened after 96 hours.
Therapeutic Peptides from HSPB5 in EAE. […] We made a series of overlapping, 15-mer peptide fragments of HSPB5 and treated mice at the peak of disease with 10 μg of each peptide every other day, using HSPB5 as a positive control and PBS as a negative control.
EAE induction and scoring. Mice were immunized subcutaneously with 100 μL of myelin oligodendrocyte glycoprotein (MOG) peptide 35-55 (2 mg/mL) and Complete Freund's adjuvant (CFA) (4 mg/mL) on Day 0. […] Mice were randomized at the peak of disease into the treatment groups where they received 10 ug/200 μL of sHSP, 1 μg/200 uL of sHSP peptide, or 200 μL of PBS (vehicle) every other day. Mice were scored every day on a clinical scoring system: 0, healthy mouse; 1, limp tail; 2, weak hindlimbs; 3, complete hindlimb paralysis; 4, weak forelimbs and paralyzed hindlimbs; 5, dead.

αB-crystallin [HSPB5]
treatment of EAE by full-length protein (HSPB5−/− EAE mice): able to treat not only WT mice, but also HSPB5 deficient mice
IL-17-PE molecules per CD3+, CD4+ and gd-T cells (brain T cells; brain): fewer
number of IFN-g-PE molecules per CD3+ or CD4+ cells (brain T cells; brain): no differences
percentages of IFN-g+ cells among CD3+ or CD4+ cells (brain T cells; brain): no differences
percentages of IL-17+ cells among CD3+, CD4+ or gd-T cells (brain T cells; brain): no differences
total number of the brain CD3+, CD4+, CD8+ and gd-T cells (brain T cells): did not change
production of pro-inflammatory cytokines by MOG stimulated splenocytes [1]: reduction
peripheral inflammatory response (splenocyte cytokines) [2]: modulates the peripheral inflammatory response
IL-6 production by splenocytes ([3]; LPS stimulation): fewer
TNF production by splenocytes ([3]; LPS stimulation): fewer
IFN-g production by splenocytes ([3]; concanavalin A stimulation): fewer
IL-2 production by splenocytes ([3]; concanavalin A stimulation): fewer
IL-6 production by splenocytes ([3]; concanavalin A stimulation): fewer
IL-10 production by splenocytes ([3]; concanavalin A stimulation): more
IL-12p40 production by splenocytes ([3]; concanavalin A stimulation): fewer
IL-17 production by splenocytes ([3]; concanavalin A stimulation): fewer
total number of splenocytes [3]: equivalent
EAE clinical scores over the course of the whole experiment (area under the curve) (EAE mice; 10 μg sHSP protein IP every other day from peak of disease): significantly improved
clinical paralysis / EAE clinical scores (EAE mice; 10 μg sHSP protein IP every other day starting at the peak of disease): significantly ameliorated clinical paralysis; also recorded: therapeutic
